Source: PMC9738062, “Selectively Halogenated Flavonolignans—Preparation and Antibacterial Activity” (International Journal of Molecular Sciences, 2022)

Experiments:
[1] = tested on: Vibrio campbellii BAA 1118 (AI-1); assay: microbe, parasite or virus in culture; type: cell-based; details: for EC50: Vibrio campbellii, BAA1118, 16 h, read-out: EC50 (concentration that halved the communication); for SI (selectivity index): ratio IC50 (viability) / EC50 (communication), BAA 1118
From the text: (§1) Commercially available strains of Vibrio campbellii were used to evaluate the ability of flavonoids and their derivatives to inhibit bacterial quorum sensing. V. campbellii uses two types of autoinducing molecules for its communication—N-acyl-homoserine lactones (Autoinducer I, AI-1, strain BAA 1118) and furanosyl borate diester (Autoinducer II, AI-2, strain BAA 1119). AI-1-based communication is mainly used by Gram-negative bacteria, while AI-2-based communication is found in both Gram-negative and Gram-positive bacteria. The mutant strains of V. campbellii BA1118 and BA1119 respond only to AI-1 or AI-2, respectively, and the response to the respective AI concentration is measured as luminescence. The higher the AI concentration, the higher the luminescence signal. The ability to inhibit the communication was expressed as the selectivity index (SI), calculated as the ratio between the concentration that halved the viability (IC50) and the concentration that halved the communication (EC50) of the respective V. campbellii strains. […] The antimicrobial activity of quorum-sensing inhibitors is undesirable because it creates a selection pressure and can lead to the development of resistance.
(§2) The inhibition of bacterial extracellular communication was measured using Vibrio campbellii strains BAA-1118 and BAA-1119. The experiment was performed according to the methods of Szemerédi et al.. Briefly, 5 × 10^5 CFU/mL (colony-forming units per milliliter) were seeded in an Autoinducer Bioassay medium (NaCl 17.5 g/L, MgSO4 12.3 g/L, Casamino acids 2 g/L, 10 mL of 1 M potassium phosphate pH 7.0, 10 mL of 0.1 M L-arginine, and 10 mL of glycerol in 970 mL of deionized water) in a 96-well plate. Immediately, the tested compounds were added at the final concentration of 0.2–200 µM and luminescence was recorded for 16 h by a SpectraMax i3x microplate reader set at 30 °C, an integration time of 10,000 ms, and shaking for 60 s before measurement. […] The selectivity index was calculated as the […]. The EC50 and IC50 were calculated using GraphPad Prism software version 5.00 for Windows with a nonlinear regression curve fit.

[2] = tested on: Vibrio campbellii BAA 1119 (AI-2); assay: microbe, parasite or virus in culture; type: cell-based; details: for EC50: Vibrio campbellii, BAA1119, 16 h, read-out: EC50 (concentration that halved the communication); for SI (selectivity index): ratio IC50 (viability) / EC50 (communication), BAA 1119
From the text: as §1, §2

[3] = tested on: multidrug-resistant P. aeruginosa; assay: Sensitization of antibiotic-resistant bacteria (compound plus breakpoint antibiotic concentration); type: cell-based, Pseudomonas aeruginosa; details: flavonoid 40 µM, 24 h; for Effect on viability in combination with colistin: colistin 2 mg/L; for Effect on viability in combination with imipenem: imipenem 4 mg/L; for Effect on viability in combination with imipenem: key: -: no effect (100% viability) was observed up to the highest flavonolignan concentration tested (>40 µM); reversion of resistance: the compound reversed the resistant phenotype to a sensitive one
Description: (§3) Clinically relevant antibiotics were selected for sensitization testing according to the European Committee on Antimicrobial Susceptibility Testing (EUCAST). Neither colistin and imipenem at breakpoint concentrations (according to EUCAST, […] and […]) affected the growth of the multidrug-resistant clinical strain of P. aeruginosa. Similarly, neither chloramphenicol and gentamicin at breakpoint concentrations ([…], respectively) affected the multidrug-resistant clinical strain of S. aureus. Flavonoids and their derivatives (1–40 µM) were used in combination therapy, along with the breakpoint concentration of antibiotics. After co-incubation, the minimum inhibitory concentration of flavonoids inhibiting the visible growth of bacteria was determined (Table 2).
(§4) Clinical isolates of P. aeruginosa and S. aureus were obtained from the General University Hospital in Prague (Prague, Czech Republic). P. aeruginosa was resistant to ciprofloxacin, oxacillin, ticarcillin, colistin, gentamicin, and imipenem. S. aureus was resistant to ciprofloxacin, gentamicin, erythromycin, chloramphenicol, clindamycin, oxacillin, cefotaxime, and vancomycin. Bacteria were cultivated in Mueller–Hinton broth (MH broth, Merck). The susceptibility of the bacteria was evaluated by the minimum inhibitory concentrations (MIC). The MIC of derivatives in the presence of the antibiotic cut-off concentration was determined according to ISO 20776-1: 2020. The antibiotic cut-off concentration was chosen according to the European Committee on Antimicrobial Susceptibility Testing (EUCAST, Clinical breakpoints—bacteria (ver. 11.0), 1 January 2021). The 40 µM concentration of the derivatives was chosen as the highest concentration for the tests. Cell viability was determined by measuring absorbance (A590 nm) after 24 h incubation at 37 °C, 150 rpm.

[4] = tested on: multidrug-resistant S. aureus; assay: as above; type: cell-based, Staphylococcus aureus; details: for Effect on viability in combination with chloramphenicol: chloramphenicol 8 mg/L; for Effect on viability in combination with chloramphenicol / Effect on viability in combination with gentamicin: 24 h; for Effect on viability in combination with gentamicin: gentamicin 1 mg/L
Description: as §3, §4

[5] = Folin-Ciocalteu reagent reduction; details: gallic acid equivalents
Description: (§5) To further elucidate how halogenation affects other properties of the flavonoids studied, their 2,2′-azino-bis-(3-ethylbenzothiazoline-6-sulfonic acid) cation (ABTS) and 1,1-diphenyl-2-picrylhydrazyl (DPPH) radical scavenging, the Folin–Ciocalteu reagent (FCR) reducing, the ferric-reducing antioxidant power (FRAP), and the anti-lipoperoxidation activities were evaluated by in vitro methods (Supplementary Information Tables S1 and S2).
(§6) The antiradical activity was evaluated by the ability to scavenge ABTS and DPPH radicals. Reducing capacity was assessed by the ability to reduce the Folin–Ciocalteu reagent (FCR) and ferric ions (FRAP). The ability to inhibit lipid peroxidation of pooled male rat microsomal liver membranes induced by tert-butyl hydroperoxide was also evaluated and the results were expressed as IC50 values.

DPPH radical scavenging = details: 1,1-diphenyl-2-picrylhydrazyl radical scavenging
Description: as §5, §6

[6] = tested on: pooled male rat microsomal liver membranes; assay: Inhibition of lipid peroxidation induced by tert-butyl hydroperoxide; type: biochemical; details: male rat microsomes, read-out: ILP IC50
Description: as §6

[7] = tested on: lipopolysaccharide-stimulated macrophages (RAW 264.7); assay: Inhibition of nitric oxide production (Griess reagent); type: cell-based, murine; details: Mus musculus, RAW264.7; LPS 100 ng/mL, 24 h; highest tested concentration 100 µM; read-out: NO Production IC50
Description: The anti-inflammatory activity of the tested flavonolignans was determined as the ability to reduce nitric oxide production by murine macrophages (RAW 264.7) stimulated by bacterial lipopolysaccharides, as previously described. […] For the experiment, 1 × 10^6 cells/mL was seeded into the 96-well plate (100 µL/well). […] After 24 h, the medium was mixed with Griess reagent (0.04 g/mL), prepared freshly in deionized water at the ratio of 1:1. The absorbance was measured after 15 min at 540 nm by the SpectraMax i3x microplate reader. Cell viability was determined by resazurin assay.

With COc1cc([C@H]2Oc3cc([C@H]4Oc5cc(O)cc(O)c5C(=O)[C@@H]4O)ccc3O[C@@H]2CO)ccc1O [3a, silybin A, reference compound] the EC50 [1] was 97.1 ± 1 µM, the “SI (selectivity index)” value [1] was 1.3 ± 0.1 and the EC50 [2] was 17.1 ± 0.5 µM. The “SI (selectivity index)” value [2] was 7.0 ± 0.4, the “Effect on viability in combination with colistin” value (“Effect … with colistin” for short) [3] was “-” and the “Effect on viability in combination with imipenem” value (“Effect … with imipenem” below) [3] was “-”. For the same compound, the “Effect on viability in combination with chloramphenicol” value (shortened to “Effect … with chloramphenicol”) ([4]; flavonoid 40 µM) was “-”, the “Effect on viability in combination with gentamicin” value (shortened to “Effect … with gentamicin”) ([4]; flavonoid 40 µM) was “-” and the “FCR [GAE]” value [5] was 1.35 ± 0.06 GAE. It also gave an IC50 (DPPH radical scavenging) of 322 µM, an IC50 [6] of 213 µM and an IC50 [7] of 53.9 ± 4.9 µM.
In the case of COc1cc([C@@H]2Oc3cc([C@H]4Oc5cc(O)cc(O)c5C(=O)[C@@H]4O)ccc3O[C@H]2CO)ccc1O [3b, silybin B, reference compound], the EC50 [1] is reported as 121.5 ± 0.6 µM, the “SI (selectivity index)” value [1] is reported as 0.96 ± 0.01 and the EC50 [2] is reported as 22.3 ± 0.5 µM. For the same compound, the “SI (selectivity index)” value [2] was 6.8 ± 0.2, the “Effect … with colistin” value [3] was “-” and the “Effect … with imipenem” value [3] was “-”. The “Effect … with chloramphenicol” value ([4]; flavonoid 40 µM) was “-”, the “Effect … with gentamicin” value ([4]; flavonoid 40 µM) was “-” and the “FCR [GAE]” value [5] was 1.39 ± 0.08 GAE. For the same compound, the IC50 (DPPH radical scavenging) was 259 µM, the IC50 [6] was 291 µM and the IC50 [7] was 55.6 ± 5.5 µM.
With O=C1c2c(O)cc(O)cc2OC(c2ccc(O)c(O)c2)C1O (stereo not drawn) [compound 1, taxifolin, reference compound] the EC50 [1] was 63.7 ± 2.7 µM, the “SI (selectivity index)” value [1] was 1.1 ± 0.1 and the EC50 [2] was 7.3 ± 0.3 µM. For the same compound, the “SI (selectivity index)” value [2] was 11.0 ± 0.6, the “Effect … with colistin” value [3] was “-” and the “Effect … with imipenem” value [3] was “-”. For the same compound, the “Effect … with chloramphenicol” value ([4]; flavonoid 40 µM) was “-”, the “FCR [GAE]” value [5] was 1.92 ± 0.05 GAE and the IC50 (DPPH radical scavenging) was 2.91 µM. It also gave an IC50 [6] of 16.3 ± 1.1 µM and an IC50 [7] of 52.4 ± 1.2 µM.
With O=c1c(O)c(-c2ccc(O)c(O)c2)oc2cc(O)cc(O)c12 [compound 2, quercetin, reference compound] the EC50 [1] was 15.9 ± 0.5 µM, the “SI (selectivity index)” value [1] was 1.5 ± 0.1 and the EC50 [2] was 4.8 ± 0.2 µM. For the same compound, the “SI (selectivity index)” value [2] was 2.2 ± 0.2, the “Effect … with colistin” value [3] was “-” and the “Effect … with imipenem” value [3] was “-”. The “Effect … with chloramphenicol” value ([4]; flavonoid 40 µM) was “-”, the “Effect … with gentamicin” value ([4]; flavonoid 40 µM) was “-” and the “FCR [GAE]” value [5] was 2.33 ± 0.05 GAE. For the same compound, the IC50 (DPPH radical scavenging) was 2.06 µM, the IC50 [6] was 39 ± 2.9 µM and the IC50 [7] was 14.6 ± 2.1 µM.
For COc1cc(C2Oc3cc(-c4oc5cc(O)cc(O)c5c(=O)c4O)ccc3OC2CO)ccc1O (stereo not drawn) [compound 4, 2,3-dehydrosilybin AB, reference compound], the EC50 [1] was 59.9 ± 2 µM, the “SI (selectivity index)” value [1] was 2.7 ± 0.2 and the EC50 [2] was 10.2 ± 0.4 µM. The “SI (selectivity index)” value [2] was 2.5 ± 0.2, the “Effect … with colistin” value [3] was “-” and the “Effect … with imipenem” value [3] was “-”. The “Effect … with chloramphenicol” value ([4]; flavonoid 40 µM) was “-”, the “Effect … with gentamicin” value ([4]; flavonoid 5 µM) was “reversion of resistance [5 µM]” and the “Gentamicin-resistant phenotype of S. aureus (result in words)” value ([4]; gentamicin breakpoint concentration, compound 5 µM) was “reversed”. For the same compound, the “FCR [GAE]” value [5] was 1.68 ± 0.03 GAE, the IC50 (DPPH radical scavenging) was 14.4 µM and the IC50 [6] was 34.6 ± 2.3 µM. The IC50 [7] was 27.9 ± 0.5 µM.
For COc1cc([C@@H]2Oc3c(O)cc([C@H]4Oc5cc(O)cc(O)c5C(=O)[C@@H]4O)cc3[C@H]2CO)ccc1O [compound 5, silychristin A, reference compound], the EC50 [1] was over 200 µM, the EC50 [2] was over 200 µM and the “Effect … with colistin” value [3] was “-”. The “Effect … with imipenem” value [3] was “-”, the “Effect … with chloramphenicol” value ([4]; flavonoid 40 µM) was “-” and the “Effect … with gentamicin” value ([4]; flavonoid 40 µM) was “-”. For the same compound, the “FCR [GAE]” value [5] was 1.87 ± 0.07 GAE, the IC50 (DPPH radical scavenging) was 47.2 µM and the IC50 [6] was 129 µM. It also gave an IC50 [7] of 72.5 ± 5.4 µM.
With COc1cc([C@@H]2Oc3c(O)cc(-c4oc5cc(O)cc(O)c5c(=O)c4O)cc3[C@H]2CO)ccc1O [compound 6, 2,3-dehydrosilychristin A, reference compound] the EC50 [1] was 22.3 ± 1 µM, the “SI (selectivity index)” value [1] was 1.9 ± 0.2 and the EC50 [2] was 11.1 ± 0.1 µM. For the same compound, the “SI (selectivity index)” value [2] was 0.99 ± 0.05, the “Effect … with colistin” value [3] was “-” and the “Effect … with imipenem” value [3] was “-”. For the same compound, the “Growth in combination with chloramphenicol” value ([4]; chloramphenicol breakpoint concentration, compound 40 µM as stated in the text) was 69%, the “Effect … with gentamicin” value ([4]; flavonoid 40 µM) was “-” and the “FCR [GAE]” value [5] was 2.43 GAE. It also gave an IC50 (DPPH radical scavenging) of 10.8 ± 0.4 µM, an IC50 [6] of 51.9 ± 2.2 µM and an IC50 [7] of 42.1 ± 2.7 µM.
For O=C1c2c(cc(O)c(Br)c2O)O[C@H](c2ccc(O)c(O)c2)[C@H]1O [compound 7, 6-Bromotaxifolin], the EC50 [1] was 38.9 ± 1.6 µM, the “SI (selectivity index)” value [1] was 1.5 ± 0.1 and the EC50 [2] was 11.9 ± 0.5 µM. The “SI (selectivity index)” value [2] was 1.7 ± 0.2, the “Effect … with colistin” value [3] was “-” and the “Effect … with imipenem” value [3] was “-”. The “Effect … with chloramphenicol” value ([4]; flavonoid 40 µM) was “-”, the “FCR [GAE]” value [5] was 1.70 ± 0.01 GAE and the IC50 (DPPH radical scavenging) was 7.77 µM. It also gave an IC50 [6] of 201 µM and an IC50 [7] of 78.4 ± 7.8 µM.
